Read-outs that look alike come from different tables or passages of the source.
What was measured:
[1] = tested on: PZ-HPV-7 normal cell line; assay: Chelate permeability: fluorescence of cytoplasm and membrane fractions; type: cell-based; settings: PZ-HPV-7
[2] = tested on: cancer cells (LNCaP, Caco-2, T84); assay: Chelate permeability and specificity, cancer cells versus normal cells (summary); type: cell-based, human; settings: cancer cells
[3] = target: HSPC194 (Homo sapiens, UniProt Q9P0S9); settings: LNCaP, T84, Caco-2, RBL-2H3; 2 hours
Chain of HSPC194 (Q9P0S9 whole entry): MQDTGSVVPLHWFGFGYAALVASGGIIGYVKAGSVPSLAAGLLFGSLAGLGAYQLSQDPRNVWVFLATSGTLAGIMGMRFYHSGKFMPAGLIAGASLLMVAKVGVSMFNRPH
Description: Cell samples were lysed in parallel by sonication or by lysis in hypotonic buffer. Cell fractions were collected from discontinuous sucrose gradients and from separate Percoll gradients, after ultracentrifugation.
Following fractionation, each sample was lyophilized to enrich the sample.
The resulting tryptic peptides were analyzed directly by mass spectrometry. Peptide mass fingerprints were generated for the identification of the protein, and MALDI-PSD was used to sequence Fragments T3, T4, T5, and T6. The resulting data were used to search GenBank for a human protein having or a nucleic acid encoding, an amino acid sequence matching this set of peptides.

[4] = tested on: HEK293 cells, normal (non-induced); assay: Permeability of chelates to HEK293 cells, fluorescence of fractions; type: cell-based, human; settings: HEK293 Normal; 1 mM chelate, 2 hours
Description: (§1) The human kidney transformed HEK293 cells (obtained from the ATCC) were grown in Eagle's Minimum Essential Medium (EMEM) supplemented with 10% (v/v) heat-inactivated fetal bovine serum, sodium pyruvate, nonessential amino acids and antibiotics in a humidified 5% CO2 atmosphere at 37° C. Medium and supplements were purchased from Gibco bRL (Grand Island, N.Y.). Etoposide was obtained from Sigma (St. Louis, Mo.) and prepared as 20 mM solution in dimethyl sulfoxide (DMSO). For treatments, etoposide was applied to the HEK293 cultures at 1:1000 dilution (final concentration of 20 μM) after cell became 75% confluent. As a control, cells were fed with medium containing 0.1% DMSO in the absence of etoposide. After treatment with etoposide, cells were incubated in a humidified 5% CO2 at 37° C. for 24 hours. HEK293 cells were collected by removing treatment medium and washed 2 times with 10 mM HEPES buffer. Final cell pellets were resuspended in a small amount of HEPES and stored at 4° C. for further study.
(§2) Cells were grown to confluence in T-150 flasks (about 2×10^6 cells). […] After treatment, the chelate or analogue supernatant was discarded and the cells were rinsed three times at room temperature with 10 mM HEPES. Cells were then removed from the flask by manual scraping. Cells were transferred to a 50-mL conical tube and centrifuged (400×g) for 5 minutes and the test material removed. Remaining cells were rinsed twice with cold 10 mM HEPES. Cells were used in cell binding assays.

[5] = tested on: etoposide-induced (apoptotic) HEK293 cells; assay: Permeability of chelates to apoptotic cells, fluorescence of fractions; type: cell-based, human
Description: as §1, §2

[6] = tested on: cancer cell lines (LNCaP, T84, Caco-2, RBL-2H3) and healthy control cells
[7] = tested on: normal cheek pouch tissue; settings: 2 mM solution topical, 10 minutes, readings Adjusted Volume CNT*mm2
[8] = tested on: Caco-2 cell line; assay: Chelate permeability: fluorescence of cytoplasm and membrane fractions; type: cell-based, human
[9] = tested on: RBL-2H3 cell line; assay: as above; type: cell-based, rat; settings: 0-2000 μM, 2 hours
Description: Tb-PCTMB (Tb(III) 3,6,9-tris(methylene phosphonic acid n-butyl ester)-3,6,9,15-tetraazabicyclo[9.3.1]pentadeca-1(15),11,13-triene) was tested for permeability to abnormal and disease-state cells.
RBL-2H3 is a rat basophilic leukemia cell line. These cells were grown in Iscove's Medium supplemented with 2 mM L-glutamnine, penicillin/streptomycin (100 IU/mL, 100 μg/mL) and 10% FBS. Cells were maintained at 5% CO2 and 95% humidity. PZ-HPV-7 cell line was derived from epithelial cells cultured from normal prostate tissue. They were grown in Keratinocyte-Serum Free Medium with human recombinant EGF and bovine pituitary extract supplemented with 50 μg/mL gentamicin and penicillin/streptomycin (100 IU/mL, 100 μg/mL). All media and supplements were purchased from Gibco BRL (Grand Island, N.Y., USA). All cell lines were obtained from ATCC and were maintained at 37° C., 5% CO2 and 95% humidity.
Cells were grown to confluence in T-150 flasks (about 2×10^6 cells). […] Cells were then removed from the flask by manual scraping. Cells were transferred to a 50-mL conical tube and centrifuged (400×g) for 5 minutes and the test material removed.
Cells were grown as described herein (Example 1). Cells were grown to confluence in T-150 flask (about 2×10^6 cells). […] Cells were then removed from the flask by manual scraping. Cells were transferred to a 50-mL conical tube and centrifuged (400×g) for 5 minutes and the test material removed.
Furthermore, one analogue, QCTMP (FIG. 26), having lesser lipophilic character (a free phosphonic acid moiety) was evaluated. […] In this study, the cytoplasm and membrane fractions were extracted by Mem-PER Eukaryotic Membrane Protein Extraction Reagent Kit as described by the manufacturers (Pierce Biotechnology, Rockford, Ill.) and analyzed by a Fluor-S Multilmager.

[10] = tested on: LNCaP cell line; assay: as above; type: cell-based, human
[11] = tested on: T84 cell line; assay: as above; type: cell-based, human; settings: 1 mM chelate, 2 h, Table 1
[12] = tested on: DMBA-induced tumor tissue of buccal cheek pouch; settings: 2 mM solution topical, 10 minutes; for Fluorescence/mg Cytoplasm / Fluorescence/mg Membrane: readings Adjusted Volume CNT*mm2
[13] = 0-2000 μM, 2 hours, compared to PZ-HPV-7

CCCCOP(=O)([O-])CN1CCN(CP(=O)([O-])OCCCC)Cc2cccc(n2)CN(CP(=O)([O-])OCCCC)CC1.[Tb+3] [Tb-PCTMB, Tb(III) 3,6,9-tris(methylenephosphonic acid n-butyl ester)-3,6,9,15-tetraazabicyclo[9.3.1]pentadeca-1(15),11,13-triene]
detectability in normal cells [1]: significantly less detectable | permeability to cell membranes [2]: permeable to cancer cell membranes | binding to protein expressed in cancer cell lines (HSPC194, about 15 kDa) [3]: binds specifically to a single protein | Fluorescence/mg Membrane [4]: 925 | permeability to apoptotic induced HEK293 cells [5]: permeable | Fluorescence/mg Membrane ([5]; HEK293 Apoptotic (etoposide 20 μM, 24 hours), 1 mM chelate, 2 hours): 949 | localization in cancer cell lines, confocal fluorescence microscopy [6]: localized throughout the cytoplasm | presence in healthy (control) cells, confocal fluorescence microscopy [6]: not present | Fluorescence/mg Cytoplasm ([7]; Normal 1): 1138 | Fluorescence/mg Membrane ([7]; Normal 1): 1126 | Fluorescence/mg Cytoplasm ([7]; Normal 2): 1117 | Fluorescence/mg Membrane ([7]; Normal 2): 1125 | fluorescence in the membrane fractions, dose response ([8]; 0-2000 μM, 2 hours): detectable quantity of fluorescence | fluorescence in the cytoplasm, dose response [8, 13]: significant increases in fluorescence | Fluorescence/mg Cytoplasm ([8]; 1 mM chelate, 2 h, Table 1): 481.6 | Fluorescence/mg Membrane ([8]; 1 mM chelate, 2 h, Table 1): 398.6 | fluorescence in the membrane fractions, dose response [9]: detectable quantity of fluorescence | fluorescence in the cytoplasm, dose response ([9]; compared to PZ-HPV-7): significant increases in fluorescence | fluorescence in the cytoplasm, dose response [10, 13]: significant increases in fluorescence | Fluorescence/mg Cytoplasm ([10]; 1 mM chelate, 2 h, Table 1): 616.8 | Fluorescence/mg Membrane ([10]; 1 mM chelate, 2 h, Table 1): 448.9 | Fluorescence/mg Cytoplasm [11]: 476.4 | Fluorescence/mg Membrane [11]: 355.5 | fluorescence in the cytoplasm of tumor tissue compared to normal tissue [12]: significantly greater fluorescence | Fluorescence/mg Cytoplasm ([12]; Tumor 1): 3014 | Fluorescence/mg Membrane ([12]; Tumor 1): 1331 | Fluorescence/mg Cytoplasm ([12]; Tumor 2): 3064 | Fluorescence/mg Membrane ([12]; Tumor 2): 1484
